Results reported in patent US20260242745A1, “TISSUE ENGINEERED TUBE USING STEM CELL, AND METHOD FOR PRODUCING SAME” (TOHOKU UNIVERSITY, priority 2023, published 2026).
Bridges are numbered along the chain shown (N, C = ends). Where no end group is shown, it is not given here.

Legend:
[1] = tested on: artificial blood vessels produced from 201B7 cells (iPS cells derived from healthy subjects); assay: Contraction of artificial blood vessels produced from 201B7 iPS cells in response to physiologically active substances; assay type: cell-based, human; settings: for contraction rate after perfusion culture: 201B7 co-culture, immediately after start of perfusion culture vs third day of perfusion, FIG. 8B; for contraction reaction: artificial blood vessel of smooth muscle cells alone (201B7 vSMC) compared with 201B7 co-culture with endothelial cells, FIG. 8A; for concentration dependence of contraction rate: iPS cells derived from healthy subjects, U46619 0.05 nM to 0.5 nM, endothelin-1 100 nM to 1000 nM, n=5, FIG. 8C; for contraction reaction (same as with U46619): artificial blood vessels produced from 201B7 cells, physiological vasoconstrictors
Experimental: Next, it was analyzed whether the produced tissue engineered tube reproduces physiological reactions such as contraction and expansion with respect to a physiologically active substance. First, regarding artificial blood vessels produced from 201B7 cells, an artificial blood vessel of only smooth muscle cells (201B7 vSMC) and an artificial blood vessel obtained by seeding and co-culturing blood vessel endothelial cells induced to differentiate from 201B7 in an artificial blood vessel lumen (201B7 co-culture) were produced, and the contraction reaction due to U46619 and KCl was analyzed (FIG. 8A). U46619 is a stable synthetic analog of prostaglandin PGH2 and has an action of inducing blood vessel contraction as a thromboxane A2 receptor agonist. KCl is known to induce blood vessel contraction by membrane potential change. Since an individual difference may occur under a normal contraction amount, U46619 relative is a normalized value obtained by dividing the contraction amount when U46619 is applied by the contraction amount when KCl is applied, which indicates the maximum contraction force. […] NO is a vasodilator and is known to be released from blood vessel endothelial cells. Therefore, it is recognized that the produced artificial blood vessel reproduces the physiological mechanism. […] In the following experiments, artificial blood vessels co-cultured with endothelial cells were used unless otherwise specified.
In order to maintain a more physiological environment, perfusion culture was performed to examine whether the contraction rate was improved (FIG. 8B). Immediately after the start of perfusion culture, U46649 or KCl was applied to an artificial blood vessel produced from 201B7 cells (201B7 co-culture) on the third day of perfusion to analyze the contraction rate. […] It is known that blood vessel tissues change in phenotype, orientation, and the like and mature due to shear stress and blood pressure caused by perfusion culture.
It was analyzed whether the contraction of the artificial blood vessel with respect to U46619 and endothelin-1 depended on the concentration. Artificial blood vessels were produced using iPS cells derived from healthy subjects, and the contraction rates were measured while changing the concentrations of U46619 (0.05 nM to 0.5 nM) and endothelin-1 (100 nM to 1000 nM) (n=5). […] Therefore, it is recognized that the produced artificial blood vessels has have physiological properties.

[2] = tested on: artificial blood vessels produced from iPS cells derived from Werner syndrome patients (WS2-C5 co-culture); assay: Contraction of artificial blood vessels produced from Werner syndrome patient iPS cells compared with those from healthy subjects; assay type: cell-based, human; settings: for contraction against stimulation, WS2-C5 co-culture vs 201B7 co-culture: n=4, FIG. 9A; for relative contraction rate, Werner derived vs WT derived iPSC blood vessels: 200 nM U46619 or 100 nM angiotensin II, contraction amount with 100 mM KCl as 100%, FIG. 9B
Experimental: Next, reactions to U46619 and KCl were analyzed using artificial blood vessels produced from Werner syndrome patients iPS (FIG. 9A). iPS cells derived from healthy subjects and Werner syndrome patients were induced to differentiate into smooth muscle cells and blood vessel endothelial cells to produce artificial blood vessels as described above, and contraction with respect to U46619 and KCl was analyzed.
In addition to U46619, the relative contraction rate was also determined for angiotensin II (FIG. 9B). The artificial blood vessel was contracted by 200 nM U46619 or 100 nM angiotensin II, and the relative contraction rate was calculated with the contraction amount when 100 mM KCl was applied as 100%. […] Hereinafter, the artificial blood vessels produced using iPS cells derived from healthy subjects may be referred to as WT derived iPSC blood vessels, and the artificial blood vessels produced using iPS cells derived from Werner syndrome patients may be referred to as Werner derived iPSC blood vessels.
Artificial blood vessels were produced from iPS cells derived from healthy subjects and Werner syndrome patients and subjected to perfusion culture, and the contraction by U46619 was analyzed (FIG. 9C). […] This is considered to be caused by a decrease in NO production ability of blood vessel endothelial cells derived from iPS cells of Werner syndrome patients.

Compound | contraction rate after perfusion culture [1] | contraction reaction [1] | contraction against stimulation, WS2-C5 co-culture vs 201B7 co-culture [2] | concentration dependence of contraction rate [1] | relative contraction rate, Werner derived vs WT derived iPSC blood vessels [2] | contraction after perfusion culture, Werner derived vs WT derived iPSC blood vessels ([2]; perfusion culture, FIG. 9C) | contraction reaction (same as with U46619) [1]
[Cl-].[K+] [KCl] | an improvement in contraction rate due to perfusion culture was observed | high contraction was observed | tended to contract more strongly |  |  |  | 
CCCCC[C@H](O)/C=C/[C@@H]1[C@@H](C/C=C\CCCC(=O)O)[C@H]2CO[C@@H]1C2 [U46619] | an improvement in contraction rate due to perfusion culture was observed | high contraction was observed | tended to contract more strongly | contracted in a concentration-dependent manner | exhibited stronger contraction force | an increase in contraction force was observed | 
angiotensin II (DRVYIHPF; Angiotensin-2; UniProt P01019 25-32, looked up) [physiological vasoconstrictor] |  |  |  |  | exhibited stronger contraction force |  | the same contraction reaction occurs
endothelin-1 (CSCSSLMDKECVYFCHLDIIW; disulfide 1-15, 3-11; ends not checked; UniProt P05305 53-73, looked up) [physiological vasoconstrictor] |  |  |  | contracted in a concentration-dependent manner |  |  | the same contraction reaction occurs
